Results from ChEMBL document CHEMBL3988442, “University of Dundee, Small-Polar-MMV Screening Library” (2021).

Test system: Schistosoma mansoni
Test: High throughput screening of compounds against Schistosoma mansoni motility
Assay type: functional
Design: dose or concentration left out as unconfirmed

Oc1ccc(N2CCN(Cc3cc4c(cc3Br)OCCO4)CC2)cc1
Percent Effect: -18.88%

N#Cc1c(F)cccc1N1CCC(NS(=O)(=O)c2cccs2)CC1
Percent Effect: 28.82%

CNC(=O)CSc1nc2c(cnn2Cc2ccc(F)cc2)c(=O)[nH]1
Percent Effect: -34.73%

O=c1nc(SCc2cccnc2)c2c(n1CCO)CCC2
Percent Effect: -102.8%

O=c1nc(SCc2ccncc2)c2c(n1CCO)CCCC2
Percent Effect: -51.22%

CN(C)C(CNS(=O)(=O)c1ccc(F)cc1F)c1cccn1C (configuration not stated)
Percent Effect: 13.79%

Cc1ccnc(OCC(=O)N2CCC(C(N)=O)CC2)n1
Percent Effect: -71.31%

Cc1noc(C)c1CCC(=O)N1CCN(CCn2cccn2)CC1
Percent Effect: -23.72%

COC(=O)c1sccc1S(=O)(=O)NCC1(O)CCOc2ccccc21 (configuration not stated)
Percent Effect: -15.01%

Cc1noc(-c2ccc(N3CCCC(C(=O)N4CCSCC4)C3)nc2)n1 (configuration not stated)
Percent Effect: 26.74%

O=C1CCSCC(C(=O)N2CCN(C3CCCCC3)CC2)N1 (configuration not stated)
Percent Effect: -48.25%

N#Cc1ccc(OC2CCN(C(=O)c3ccc4c(c3)OCO4)CC2)nc1
Percent Effect: -46.44%

O=C(NCCn1ccc(-c2ccncc2)n1)c1ccncc1
Percent Effect: -35.45%

CCc1nnc2n1CCN(Cc1csc(-c3cnn(C)c3)n1)C2
Percent Effect: -30.99%

CCN1CCN(S(=O)(=O)c2ncn(C)c2Cl)CC1
Percent Effect: -72.02%

CC(CNC(=O)c1ccc(F)cc1Cl)N1CCCC1 (configuration not stated)
Percent Effect: -36.02%

CC(=O)N1CCC(C(=O)NCCN2CCC(C)CC2)CC1
Percent Effect: 14.05%

CC(=O)N1CCC(C(=O)NCCN2CCCCC2)CC1
Percent Effect: 25.49%

Cc1cc(C)n(CC(=O)N2CCC(c3nc(C)no3)CC2)n1
Percent Effect: -18.96%

CC(NC(=O)N(C)Cc1ccncc1)c1nncn1C (configuration not stated)
Percent Effect: -16.24%

CC(C)CNC(=O)Nc1ccc(CN2CCOC2=O)cc1
Percent Effect: 8.42%

CC(CNC(=O)Nc1ccc(N(C)C)nc1)Cn1cccn1 (configuration not stated)
Percent Effect: -28.69%

CCOc1cc(C)nc(N2CCN(Cc3nccn3C)CC2)n1
Percent Effect: -40.52%

COc1ccccc1OCC(=O)Nc1ncccc1OC(F)F
Percent Effect: 13.82%

Cn1ccnc1-c1cccc(NC(=O)NCCN2CCOCC2)c1
Percent Effect: -15.26%

Cn1c(CNc2c(F)cccc2-n2cccn2)cc(=O)n(C)c1=O
Percent Effect: -12.04%

CS(=O)(=O)CCNC(=O)C1(c2cccc(Cl)c2)CCCCC1
Percent Effect: 34.87%

Cc1ccccc1S(=O)(=O)NC(=O)CSc1ccc2c(c1)OCCO2
Percent Effect: -27.11%

Cn1cc(-c2csc(N3CCOCC3)n2)cn1
Percent Effect: 7.634%

Cc1cnn(CCC(=O)N2CCOC(c3nc(C(C)(C)C)n[nH]3)C2)c1 (configuration not stated)
Percent Effect: -4.27%

Cn1cc(-c2csc(CN3CCOCC3)n2)cn1
Percent Effect: 14.63%

CC(OCC(F)(F)F)C(=O)N1CCN(S(C)(=O)=O)CC1 (configuration not stated)
Percent Effect: -54.53%

CCSc1cc(C(=O)NCCC(=O)Nc2ccccn2)ccn1
Percent Effect: -76.69%

O=C1OCCN1CCOc1nc(-c2ccccc2Cl)no1
Percent Effect: -41.52%

CC(C#N)CSc1ccccc1NCC(=O)NCc1ccccc1 (configuration not stated)
Percent Effect: -63.78%

CCOCCN1CCN(Cc2nc(C3CC3)no2)CC1CC (configuration not stated)
Percent Effect: -35.07%

Cc1ccn(-c2ccccc2NCc2ncc[nH]2)n1
Percent Effect: -21.01%

O=C(NCC(F)F)N1CCC(n2ccc(C(F)(F)F)n2)CC1
Percent Effect: -27.04%

CCc1n[nH]c(C2CN(CC(=O)NCCc3ccsc3)CCO2)n1 (configuration not stated)
Percent Effect: -30.25%

CCOCCN1CCN(Cc2nnc(C3CC3)o2)CC1CC (configuration not stated)
Percent Effect: -4.218%

CCOc1ncccc1NC(=O)c1sccc1C
Percent Effect: -42.63%

Cc1cc(C(=O)N2CCCC2c2nnc3n2CCCCC3)no1 (configuration not stated)
Percent Effect: -2.272%

CN1CCN(CCCNC(=O)c2cc(Cl)c3c(c2)OCO3)CC1
Percent Effect: -22.9%

CN(C)C(=O)c1cccc(NC(=O)N(CCO)Cc2ccsc2)c1
Percent Effect: -21.08%

Cn1cc(CCNC(=O)NC2CCS(=O)(=O)C2)cn1 (configuration not stated)
Percent Effect: -23.41%

COc1cccc(NC(=O)N(CCO)Cc2ccsc2)c1
Percent Effect: -62.57%

CCc1nnc2n1CCN(C(=O)c1cnc3ccccc3n1)C2
Percent Effect: -44.56%

Cc1cnn(CC(C)NCc2nc(-c3cccnc3)no2)c1 (configuration not stated)
Percent Effect: -19.9%

CC(C)(C(=O)NCC(N)=O)c1ccccc1F
Percent Effect: 10.05%

CCOc1ncccc1NC(=O)c1cc(C)c(C)s1
Percent Effect: -34.96%

N#CC1(C(=O)Nc2ccc(OC(F)F)cc2)CCCC1
Percent Effect: 6.367%

NC(=O)CSCCC(=O)N1CCCC1c1ccsc1 (configuration not stated)
Percent Effect: 10.97%

CC(O)CN1CCC(CNCc2ccc(S(C)(=O)=O)cc2)CC1 (configuration not stated)
Percent Effect: -16.24%

N#Cc1ccc(CNCC2CCN(CCO)CC2)cc1
Percent Effect: -28.87%

Cc1nc(C)n(CC2CCCN(CCc3ccncc3)C2)n1 (configuration not stated)
Percent Effect: -44.91%

Cc1cc(C)n(CC2CCCN2C(=O)c2ccc3c(c2)nnn3C)n1 (configuration not stated)
Percent Effect: -59.08%

CSCC(CCO)NC(=O)Nc1cc(C)ccc1C (configuration not stated)
Percent Effect: -11.31%

CCCC(C)(C)NC(=O)c1ccc(CC2CC(=O)NC2=O)cc1 (configuration not stated)
Percent Effect: -6.374%

CS(=O)(=O)c1ccc(CNCC2CCN(CCO)CC2)cc1
Percent Effect: -49.34%

CCN(Cc1cccnc1)CC1CCCO1 (configuration not stated)
Percent Effect: -47.82%

Cc1cccc(CNCc2c(C(C)C)nn(C)c2N2CCOCC2)n1
Percent Effect: -46%

Cc1nc2ccccn2c1CN(Cc1cccnc1)CC1CCCO1 (configuration not stated)
Percent Effect: -47.66%

O=C(CN(Cc1cccnc1)CC1CCCO1)Nc1ccc(F)cc1 (configuration not stated)
Percent Effect: -30.42%

CCc1nc(C2CCCN2CC(=O)Nc2c(C)nn(C)c2C)no1 (configuration not stated)
Percent Effect: -35.66%

Cc1nc(C)n(CC2CCCN2CCCc2ccccc2)n1 (configuration not stated)
Percent Effect: -9.599%

Cc1nc(C)n(CC2CCCN2CC(=O)NCCc2ccccc2)n1 (configuration not stated)
Percent Effect: -20.52%

CN(C)C(C(=O)N1CCCC1)c1ccccc1F (configuration not stated)
Percent Effect: -55.33%

O=C(Cc1ccc(O)c(Cl)c1)N1CCN(CC2CC2)[C@@H]2CS(=O)(=O)C[C@@H]21
Percent Effect: -40.54%

C[C@@H]1CN(C2(C(=O)N3CCCCCC3)Cc3ccccc3C2)C[C@H](C)O1
Percent Effect: 12.64%

Cc1ncsc1CCC(=O)NCc1cc2n(n1)CCN(C(=O)N(C)C)C2
Percent Effect: 10.91%

O=C1CCC2(CCN(Cc3cc(F)cc(F)c3)CC2)CN1CCO
Percent Effect: 4.054%

CN(C)C(=O)c1ccc2c(c1)N(C)C(CC(=O)NC(C)(C)CO)CO2 (configuration not stated)
Percent Effect: 4.699%

O[C@H]1[C@H](n2cc(-c3cccnc3)nn2)c2ccccc2C12CCNCC2
Percent Effect: -35.88%

CC(C)(CO)NC(=O)C1CCC(=O)N(Cc2ccc(Cl)cc2)C1 (configuration not stated)
Percent Effect: -0.822%

Cn1cc(CCC(=O)N2C[C@H]3CC[C@@H]2CN(Cc2ccccc2)C3)cn1
Percent Effect: -38.92%

CCS(=O)(=O)N1CCC2(CCCN(Cc3cc(OC)ccc3F)C2)C1 (configuration not stated)
Percent Effect: 49.58%

COCc1cc(NCCc2ccc(F)cc2)n2nccc2n1
Percent Effect: -25.55%

Cc1nc(CC(=O)N2CCC[C@H]2c2nc(C(C)C)no2)cs1
Percent Effect: 11.66%

CCC(=O)N1CCC(c2nnc(Cn3cccn3)n2C2CC2)CC1
Percent Effect: -15.52%

CN(C)S(=O)(=O)N1C[C@@H]2CC[C@H](C1)N(Cc1ccc3nsnc3c1)C2
Percent Effect: -23.4%

CCN(CCn1cccn1)Cc1nc(-c2ccccc2F)oc1C
Percent Effect: -13.18%

COCC(O)CNC(=O)c1coc(COc2ccc3sc(C)nc3c2)n1 (configuration not stated)
Percent Effect: 22.1%

CCCS(=O)(=O)c1ncc(CN2CCC(CO)CC2)n1CC1CCCO1 (configuration not stated)
Percent Effect: -65.7%

CN(CCCc1cnn(C)c1)C(=O)C1CCOC1 (configuration not stated)
Percent Effect: -54.96%

COc1ccccc1OCc1cc(C(=O)N2C[C@H](O)[C@@H](N(C)C)C2)n[nH]1
Percent Effect: -29.56%

O=C(CCc1cc2n(n1)CCCN(C(=O)c1cccnc1)C2)NC1CC1
Percent Effect: 5.877%

O=C(CCCc1cn[nH]c1)N1C[C@@H](CN2CCOCC2)[C@@H](CO)C1
Percent Effect: -60.63%

O=S(=O)(Cc1ccccc1)NCc1ccco1
Percent Effect: -25.54%

O=C(CCc1cc2n(n1)CCCN(Cc1ccccc1F)C2)NC1CC1
Percent Effect: -12.36%

Cc1ccccc1N1CCCN(C(=O)CCCS(N)(=O)=O)CC1
Percent Effect: -57.21%

COCc1cn([C@@H]2c3ccccc3C3(CCNCC3)[C@H]2O)nn1
Percent Effect: -22.09%

Cc1cc(N2CCN(Cc3nccn3C)CC2)cc(C)n1
Percent Effect: -24.56%

NC(=O)COc1cccc(C(=O)Nc2cnc3n2CCCC3)c1
Percent Effect: -21.49%

CCn1nc(CC(C)C)cc1C(=O)NCCn1cccc1
Percent Effect: -58.97%

Cc1nc[nH]c1CN1C[C@@H]2CC[C@H](C1)N(C(=O)CCc1cnn(C)c1)C2
Percent Effect: -10.53%

CCS(=O)(=O)N1CCC(c2nnc(Cn3cccn3)n2C2CC2)CC1
Percent Effect: -7.484%

O[C@H]1[C@H](n2cc(-c3ccccc3)nn2)c2ccccc2C12CCNCC2
Percent Effect: 3.648%

O=C(CCc1ccsc1)N1CCC(Cc2ccc(CO)cc2)C1 (configuration not stated)
Percent Effect: 6.677%

Cc1cc(N2CCN3CCCCC3C2)n2nc(C)c(C)c2n1 (configuration not stated)
Percent Effect: -7.768%

Cc1noc(C)c1CN1C(=O)[C@H]2CC[C@@H]1CN(Cc1cccnc1N)C2
Percent Effect: -25.95%

Cc1occc1C(=O)N1CCC2(CCC(=O)N(CC(N)=O)C2)CC1
Percent Effect: 13.97%

CN(C)C(=O)c1ccc2c(c1)N(C)C(CC(=O)NCCC(C)(C)C)CO2 (configuration not stated)
Percent Effect: -13.7%

CN(C)C(C(=O)N1CCC(N2CCSCC2)CC1)c1ccccc1F (configuration not stated)
Percent Effect: 10.46%

COc1ccccc1Oc1ncccc1CNC(=O)[C@@H](C)NC(C)=O
Percent Effect: -37.6%

Cn1c(Cn2ccnc2)nnc1C1CCN(Cc2cccnc2N)CC1
Percent Effect: -10.4%

Cc1ccsc1[C@@H]1CCN(C(=O)c2cc3ccccc3[nH]2)C[C@H]1O
Percent Effect: 28.15%

CC(C)NC(=O)c1nnn(-c2cccc(C(F)(F)F)c2)c1N
Percent Effect: 32.01%

CCN(c1ccc(C(=O)N2CCCC(C)C2)cc1)S(=O)(=O)CC (configuration not stated)
Percent Effect: -11.81%

O=C1CC(c2cccs2)c2snc(C(=O)O)c2N1 (configuration not stated)
Percent Effect: 18.04%

O=C(c1cccc(S(=O)(=O)NCCCc2ncc[nH]2)c1)N1CCOCC1
Percent Effect: -82.46%

CCC1CN(C(=O)c2ccc(=O)[nH]c2)CCC(=O)N1Cc1ccccc1 (configuration not stated)
Percent Effect: -27.12%

Cl.O=C(Cc1ccc(F)cc1)N1CCN(CC(O)C2CC2)CC1 (configuration not stated)
Percent Effect: -44.17%
